Data reported in patent US20250382332A1, “NOVEL ALPHA-FACTOR BASED PEPTIDES WITH ANTIFUNGAL ACTIVITY” (INVAIO SCIENCES, INC., priority 2024, published 2025).
Peptide text beside a SMILES is read from it.

Test system: Botrytis cinerea (B05.10)
Assay: Resazurin antifungal assay of 23 alpha-factor peptides (dimers, hybrids) towards Botrytis (Example 15, Table 6)
Assay type: cell-based
Parameters: key to active against Botrytis at 2.5 μM: Peptides that showed greater than 90% inhibition were considered active against Botrytis
Settings: for Inhibition at 10 μM: peptide 10 μM; for Inhibition at 10 μM / Inhibition at 20 μM / Inhibition at 50 μM / Inhibition at 2.5 μM / Inhibition at 5 μM: resazurin assay, % inhibition of fungal growth, Botrytis cinerea B05.10; for Inhibition at 20 μM: peptide 20 μM; for Inhibition at 50 μM: peptide 50 μM; for Inhibition at 5 μM: peptide 5 μM
Procedure: The antifungal activity of […] alpha-factor peptide variants towards Botrytis was tested. Experimental design:
Peptides corresponding to SEQ ID NO: 261-264 and 401-420 were chemically synthesized using the solid-phase synthesis method and resuspended in water to a stock solution of 1 mM. The stock solution was aliquoted in cryovials and stored at −80° C.
The Botrytis cinerea culture (B05.10) isolate was acquired from the Centraalbureau voor Schimmelcultures, the Netherlands. The Botrytis fungus was propagated on 0.5% V8 agar plates (200 ml V8 Juice, 3 g CaCO3, 15 g agar, 800-ml millipore water) at 20° C., in a 12 h photoperiod for 21 days.
Fungal conidia were harvested by scraping a Botrytis plate flooded with 1 ml water with 0.1% Tween 80 solution. Conidia were then collected in a 50 ml falcon tube by passing the solution through a 40 micron filter. The solution was then centrifuged at 6000 rpm and the pellet was resuspended in 1 ml of 20% glycerol. The conidia concentration of the resulting solution was counted using a hemocytometer. The stock was diluted to […] using 20% glycerol and frozen in 100 μl aliquots in −80° C. until further use.
Peptides were tested for activity against Botrytis, using the resazurin assay. For this, fungal stock conidia was first diluted to 5000 conidia/well. 50 μl of the spore suspension was added to each well of the sterile 96-well clear bottom testing plate and mixed with 50 μl of peptide solutions to a final concentration of 100, 50, 20, 10, 5 and 2.5 μM. The plate was incubated for 24 h at 20° C. After 24 h, 10 μl of resazurin dye was added to the microtiter plate and incubated again for […]. Fluorescence was measured at 570/620 nm after 4 h of incubation with resazurin.
Growth inhibition was calculated by subtracting the fluorescence values of conidia only wells from sample wells and depicted as % inhibition of fungal growth. Four technical replicates were used for all treatments.

| SMILES | Inhibition at 10 μM [%] | Inhibition at 20 μM [%] | Inhibition at 50 μM [%] | Inhibition at 2.5 μM (peptide 2.5 μM) [%] | Inhibition at 5 μM [%] | active against Botrytis at 2.5 μM (peptide 2.5 μM) |
| --- | --- | --- | --- | --- | --- | --- |
| CSCC[C@H](NC(=O)[C@@H]1CCCN1C(=O)[C@H](CCC(N)=O)NC(=O)CNC(=O)[C@@H]1CCCN1C(=O)[C@H](CCCNC(=N)N)NC(=O)[C@H](Cc1ccccc1)NC(=O)[C@H](CCCNC(=N)N)NC(=O)[C@H](CC(C)C)NC(=O)[C@H](Cc1c[nH]c2ccccc12)NC(=O)[C@H](Cc1c[nH]cn1)NC(=O)[C@@H](N)CCCCN)C(=O)N[C@@H](Cc1ccc(O)cc1)C(=O)O [compound 410] (H-KHWLRFRPGQPMY-OH; N-terminus and C-terminus assumed) | <90 | 100 | 100 | – | – | – |
| CSCC[C@H](NC(=O)[C@@H]1CCCN1C(=O)[C@H](CCC(N)=O)NC(=O)CNC(=O)[C@H](C)NC(=O)[C@H](CCCNC(=N)N)NC(=O)[C@H](CC(C)C)NC(=O)[C@H](CCCNC(=N)N)NC(=O)CNC(=O)[C@H](Cc1c[nH]c2ccccc12)NC(=O)[C@H](Cc1c[nH]cn1)NC(=O)[C@@H](N)CCCCN)C(=O)N[C@@H](Cc1ccc(O)cc1)C(=O)NCC(=O)NCC(=O)NCC(=O)NCC(=O)N[C@@H](Cc1ccc(O)cc1)C(=O)N[C@@H](CCSC)C(=O)N1CCC[C@H]1C(=O)N[C@@H](CCC(N)=O)C(=O)NCC(=O)N[C@@H](C)C(=O)N[C@@H](CCCNC(=N)N)C(=O)N[C@@H](CC(C)C)C(=O)N[C@@H](CCCNC(=N)N)C(=O)NCC(=O)N[C@@H](Cc1c[nH]c2ccccc12)C(=O)N[C@@H](Cc1c[nH]cn1)C(=O)N[C@@H](CCCCN)C(=O)O [compound 264] (H-KHWGRLRAGQPMYGGGGYMPQGARLRGWHK-OH; N-terminus and C-terminus assumed) | 100 | 100 | 100 | <90 | 96.2 | – |
| CSCC[C@H](NC(=O)[C@@H]1CCCN1C(=O)[C@H](CCC(N)=O)NC(=O)CNC(=O)[C@@H]1CCCN1C(=O)[C@H](Cc1ccccc1)NC(=O)[C@H](CC(C)C)NC(=O)[C@@H](NC(=O)[C@H](CC(C)C)NC(=O)[C@H](Cc1c[nH]c2ccccc12)NC(=O)[C@H](Cc1c[nH]cn1)NC(=O)[C@@H](N)CCCCN)[C@@H](C)O)C(=O)N[C@@H](Cc1ccc(O)cc1)C(=O)O [compound 405] (H-KHWLTLFPGQPMY-OH; N-terminus and C-terminus assumed) | – | – | <90 | – | – | – |
| CC[C@H](C)[C@H](NC(=O)[C@H](CCCNC(=N)N)NC(=O)[C@H](CC(C)C)NC(=O)[C@H](Cc1c[nH]c2ccccc12)NC(=O)[C@H](Cc1c[nH]cn1)NC(=O)[C@@H](N)CCCCN)C(=O)N[C@@H](Cc1c[nH]c2ccccc12)C(=O)N1CCC[C@H]1C(=O)NCC(=O)N[C@@H](CCC(N)=O)C(=O)N1CCC[C@H]1C(=O)N[C@@H](CCSC)C(=O)N[C@@H](Cc1ccc(O)cc1)C(=O)O [compound 412] (H-KHWLRIWPGQPMY-OH; N-terminus and C-terminus assumed) | <90 | <90 | 100 | – | – | – |
| CSCC[C@H](NC(=O)[C@@H]1CCCN1C(=O)[C@H](CCC(N)=O)NC(=O)CNC(=O)[C@H](C)NC(=O)[C@H](CCCNC(=N)N)NC(=O)[C@H](CC(C)C)NC(=O)[C@H](CCCNC(=N)N)NC(=O)CNC(=O)[C@H](Cc1c[nH]c2ccccc12)NC(=O)[C@H](Cc1c[nH]cn1)NC(=O)[C@@H](N)CCCCN)C(=O)N[C@@H](Cc1ccc(O)cc1)C(=O)NCC(=O)NCC(=O)NCC(=O)NCC(=O)N[C@@H](CCCCN)C(=O)N[C@@H](CCCCN)C(=O)N[C@@H](CCCCN)C(=O)N[C@@H](CCCCN)C(=O)N[C@@H](CCCCN)C(=O)N[C@@H](CCCCN)C(=O)N[C@@H](CCCCN)C(=O)N[C@@H](CCCCN)C(=O)O [compound 263] (H-KHWGRLRAGQPMYGGGGKKKKKKKK-OH; N-terminus and C-terminus assumed) | 100 | 100 | 100 | 99.7 | 100 | active |
| CC[C@H](C)[C@H](NC(=O)[C@H](Cc1c[nH]cn1)NC(=O)[C@@H](N)CCCCN)C(=O)N[C@@H](CC(C)C)C(=O)N[C@@H](CCCCN)C(=O)N[C@@H](Cc1ccccc1)C(=O)N[C@@H](CCCCN)C(=O)N1CCC[C@H]1C(=O)NCC(=O)N[C@@H](CCC(N)=O)C(=O)N1CCC[C@H]1C(=O)N[C@@H](CCSC)C(=O)N[C@@H](Cc1ccc(O)cc1)C(=O)O [compound 402] (H-KHILKFKPGQPMY-OH; N-terminus and C-terminus assumed) | 96.2 | 100 | 100 | <90 | <90 | – |
| CSCC[C@H](NC(=O)[C@@H]1CCCN1C(=O)[C@H](CCC(N)=O)NC(=O)CNC(=O)[C@@H]1CCCN1C(=O)[C@H](CCCCN)NC(=O)[C@H](Cc1ccccc1)NC(=O)[C@H](CCCNC(=N)N)NC(=O)[C@H](CC(C)C)NC(=O)[C@H](Cc1ccc(O)cc1)NC(=O)[C@H](Cc1c[nH]cn1)NC(=O)[C@@H](N)CCCCN)C(=O)N[C@@H](Cc1ccc(O)cc1)C(=O)O [compound 403] (H-KHYLRFKPGQPMY-OH; N-terminus and C-terminus assumed) | 96.0 | 100 | 100 | <90 | <90 | – |
| CSCC[C@H](NC(=O)[C@@H]1CCCN1C(=O)[C@H](CCC(N)=O)NC(=O)CNC(=O)[C@H](C)NC(=O)[C@H](CCCNC(=N)N)NC(=O)[C@H](CC(C)C)NC(=O)[C@H](CCCNC(=N)N)NC(=O)CNC(=O)[C@H](Cc1c[nH]c2ccccc12)NC(=O)[C@H](Cc1c[nH]cn1)NC(=O)[C@H](CCCCN)NC(=O)CNC(=O)CNC(=O)CNC(=O)CNC(=O)[C@H](Cc1ccc(O)cc1)NC(=O)[C@H](CCSC)NC(=O)[C@@H]1CCCN1C(=O)[C@H](CCC(N)=O)NC(=O)CNC(=O)[C@H](C)NC(=O)[C@H](CCCNC(=N)N)NC(=O)[C@H](CC(C)C)NC(=O)[C@H](CCCNC(=N)N)NC(=O)CNC(=O)[C@H](Cc1c[nH]c2ccccc12)NC(=O)[C@H](Cc1c[nH]cn1)NC(=O)[C@@H](N)CCCCN)C(=O)N[C@@H](Cc1ccc(O)cc1)C(=O)O [compound 261] (H-KHWGRLRAGQPMYGGGGKHWGRLRAGQPMY-OH; N-terminus and C-terminus assumed) | 100 | 100 | 100 | <90 | 99.3 | – |
| CSCC[C@H](NC(=O)[C@@H]1CCCN1C(=O)[C@H](CCC(N)=O)NC(=O)CNC(=O)[C@H](Cc1c[nH]c2ccccc12)NC(=O)[C@H](CC(N)=O)NC(=O)[C@H](Cc1ccccc1)NC(=O)[C@H](CCC(N)=O)NC(=O)[C@H](CC(C)C)NC(=O)[C@H](CC(C)C)NC(=O)[C@H](Cc1c[nH]cn1)NC(=O)[C@@H](N)Cc1c[nH]c2ccccc12)C(=O)N[C@@H](Cc1ccc(O)cc1)C(=O)O [compound 408] (H-WHLLQFNWGQPMY-OH; N-terminus and C-terminus assumed) | <90 | <90 | 100 | – | – | – |
| CSCC[C@H](NC(=O)[C@@H]1CCCN1C(=O)[C@H](CCC(N)=O)NC(=O)CNC(=O)[C@@H]1CCCN1C(=O)[C@H](Cc1c[nH]c2ccccc12)NC(=O)[C@H](Cc1ccccc1)NC(=O)[C@H](CCCNC(=N)N)NC(=O)[C@H](CC(C)C)NC(=O)[C@H](Cc1c[nH]c2ccccc12)NC(=O)[C@H](Cc1c[nH]cn1)NC(=O)[C@@H](N)CCCCN)C(=O)N[C@@H](Cc1ccc(O)cc1)C(=O)O [compound 411] (H-KHWLRFWPGQPMY-OH; N-terminus and C-terminus assumed) | <90 | <90 | 100 | – | – | – |
